Measured values taken from patent US11040976B2, “Substrate selective inhibitors of insulin-degrading enzyme (IDE) and uses thereof” (President and Fellows of Harvard College, priority 2015, dated 2021).

Biological target: T1, recombinant human IDE42-1019 (Homo sapiens, UniProt P14735)
T1 construct: recombinant human IDE42-1019 (R&D Systems); purchased R&D Systems
T1 sequence (P14735 42-1019): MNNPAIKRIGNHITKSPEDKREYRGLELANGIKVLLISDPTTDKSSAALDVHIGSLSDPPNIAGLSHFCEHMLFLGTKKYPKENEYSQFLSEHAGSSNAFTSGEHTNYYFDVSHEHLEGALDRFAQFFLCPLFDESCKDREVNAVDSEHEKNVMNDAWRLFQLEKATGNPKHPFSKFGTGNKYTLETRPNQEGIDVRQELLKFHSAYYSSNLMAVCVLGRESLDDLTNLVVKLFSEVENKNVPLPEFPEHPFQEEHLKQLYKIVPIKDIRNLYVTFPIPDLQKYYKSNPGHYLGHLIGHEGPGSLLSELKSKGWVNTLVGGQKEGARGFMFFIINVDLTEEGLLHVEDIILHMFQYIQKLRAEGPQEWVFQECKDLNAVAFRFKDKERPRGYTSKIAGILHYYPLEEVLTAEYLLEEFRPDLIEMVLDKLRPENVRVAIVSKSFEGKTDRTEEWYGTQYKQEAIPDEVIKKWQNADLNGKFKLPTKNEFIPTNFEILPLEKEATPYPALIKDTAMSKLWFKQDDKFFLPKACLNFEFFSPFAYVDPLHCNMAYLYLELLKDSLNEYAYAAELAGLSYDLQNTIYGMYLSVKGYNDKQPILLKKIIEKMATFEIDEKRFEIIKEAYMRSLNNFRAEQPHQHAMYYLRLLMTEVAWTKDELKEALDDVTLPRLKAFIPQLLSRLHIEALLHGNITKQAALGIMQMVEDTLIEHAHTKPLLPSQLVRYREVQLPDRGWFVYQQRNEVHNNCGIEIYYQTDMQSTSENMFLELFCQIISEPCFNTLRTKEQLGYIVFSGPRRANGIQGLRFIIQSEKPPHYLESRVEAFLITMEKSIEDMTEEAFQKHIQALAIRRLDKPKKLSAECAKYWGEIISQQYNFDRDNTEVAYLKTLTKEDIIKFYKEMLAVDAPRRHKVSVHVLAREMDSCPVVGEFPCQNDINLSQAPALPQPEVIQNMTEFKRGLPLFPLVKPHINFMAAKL
Test: Protease assay with fluorogenic peptide substrate Mca-[…](Dnp)-OH
Type: biochemical
Conditions: fluorogenic peptide Mca-RPPGFSAFK(Dnp)-OH; for IC50: apparent IC50 for compounds with submaximal inhibition, read-out: IC50 (μM) Proteolysis; for Emax / Imax (%) Proteolysis (inhibition maximum): plateau at high inhibitor concentration; for Emax: read-out: Imax (%) Proteolysis (inhibition maximum)
Procedure: The proteases IDE42-1019, recombinant human IDE42-1019 (R&D Systems), neprilysin (R&D), and angiotensin-converting enzyme (R&D) were assayed using the fluorophore/quencher-tagged peptide substrate Mca-[…](Dnp)-OH (SEQ ID NO: 24) (R&D) according to the manufacturer's instructions and using the recommended buffers (fluorophore Mca=(7-methoxycourmarin-4-yl)acetyl and quencher Dnp=2,4-dinitrophenyl). For IDE the recommended buffer is 50 mM Tris pH 7.5, 1 M NaCl. The enzyme mixtures (48 μL) were transferred to a 96-well plate and combined with 2 μL of inhibitor in DMSO solutions, in 3-fold dilution series. The mixtures were allowed to equilibrate for 10 minutes and the enzymatic reaction was started by addition of substrate peptide in assay buffer (50 μL), mixed, and monitored on a fluorescence plate reader (excitation at 320 nm, emission at 405 nm). Similarly, thimet oligopeptidase (R&D) and neurolysin (R&D) were assayed using substrate Mca-PLGPK(Dnp)-OH (SEQ ID NO: 25) (R&D) according to the manufacturer's instructions and using the recommended buffers. Matrix metalloproteinase-1 (R&D) was activated and assayed according to the manufacturer's instructions with substrate Mca-KPLGL-Dpa-AR-NH2 (SEQ ID NO: 20) (R&D) (quencher DPA=N-3-(2,4,dinitrophenyl)-L-2,3-diaminopropionyl). All assay data points were obtained in duplicate.

IC50 [µM]	Emax [%]	Imax (%) Proteolysis (inhibition maximum) [%]	Structure (SMILES)
> 7.5	–	–	O=C(NC1CCCC1)N1CCCCN2[C@@H](CO)[C@H](c3ccc(/C=C/c4ccccc4)cc3)[C@@H]2C1 [compound 900]
2.5	–	–	Cc1ccccc1S(=O)(=O)NCCc1ccc(-c2cccc(C)c2C)cc1 [J3]
0.03	–	–	CC(=O)Nc1ccc(S(=O)(=O)N2CCCCN3[C@H](CO)[C@@H](c4ccc(-c5cccc(C)c5C)cc4)[C@@H]3C2)c(C)c1 [JP-S12]
12	–	–	Cc1cccc(-c2ccc(C3CCN(C(=O)c4ccc5c(c4)C4(OC5=O)c5ccc(O)cc5Oc5cc(O)ccc54)CC3)cc2)c1C [A40]
0.02	–	–	COC[C@@H]1[C@@H](c2ccc(-c3cccc(C)c3C)cc2)C2CN(S(=O)(=O)c3cnc(C)n3C)C/C=C\CN21 (stereo partly shown) [JP-S18-OMe]
> 50	–	–	Cc1cccc(-c2ccc(C3CCN(Cc4ccc(OCc5ccccc5)cc4)CC3)cc2)c1C [A34]
2	80	–	COC[C@H]1[C@H](c2ccc(C#Cc3ccccc3F)cc2)[C@@H]2CN(C(=O)NC(C)C)CCCCN12 [compound 304]
> 100	–	–	Cc1ccccc1S(=O)(=O)N1CC=C(c2ccc(-c3cccc(C)c3C)cc2)CC1 [J7]
2.5	–	–	Cc1ccccc1S(=O)(=O)N1CCCCN2[C@H](CO)[C@@H](c3ccc(-c4cccc(F)c4)cc3)[C@@H]2C1 [K11]
–	90	–	Cc1ccccc1S(=O)(=O)N1CCCCN2C(C1)[C@H](c1ccc(-c3cccc(F)c3F)cc1)[C@H]2CO (stereo partly shown) [K15]
2.5	60	–	Cc1ccccc1-c1ccc([C@@H]2[C@H](CO)N3C(=O)CN(C(=O)NC4CCCC4)C[C@@H]23)cc1 [compound 1576]
–	–	65	Cc1ccccc1-c1ccc([C@@H]2[C@@H](CO)N3CCCCN(S(=O)(=O)c4ccccc4C)C[C@@H]23)cc1 [B13]
12	–	–	Cc1cccc(-c2ccc(C3CCN(Cc4ccc(Oc5ccccc5)cc4)CC3)cc2)c1C [A31]
1	–	–	Cc1ccccc1S(=O)(=O)N1CCN(c2ccc(-c3cccc(C)c3C)cc2)CC1 [J1]
0.2	72	–	Cc1ccc(-c2ccc([C@@H]3[C@@H](CO)N4CCCCN(S(=O)(=O)c5ccccc5C)C[C@@H]34)cc2)cc1C [B3]
> 30	–	–	Cc1cccc(-c2ccc(C3CCN(S(=O)(=O)c4ccc5c(c4)OCCO5)CC3)cc2)c1C [A01]
10	–	–	Cc1cccc(-c2ccc(C3CCN(C(=O)c4ccccc4Oc4ccccc4)CC3)cc2)c1C [A23]
0.9	–	–	Cc1cccc(-c2ccc(C3CCN(C(=O)c4ccc5c(c4)OCCN5C)CC3)cc2)c1C [A25]
2.5	–	–	Cc1ccccc1S(=O)(=O)N1CCC(O)(c2ccc(-c3cccc(C)c3C)cc2)CC1 [J2]
0.4	–	–	COc1cccc(-c2ccc([C@@H]3[C@@H](CO)N4CCCCN(S(=O)(=O)c5ccccc5C)C[C@@H]34)cc2)c1 [K3]
12	–	–	Cc1cccc(-c2ccc(C3CCN(C(=O)Oc4ccc5ccccc5c4)CC3)cc2)c1C [A30]
0.01	–	–	Cc1cccc(-c2ccc([C@@H]3[C@@H](CO)N4CCCCN(S(=O)(=O)c5ccnn5C)C[C@@H]34)cc2)c1C [JP-S24]
1	–	–	Cc1cccc(-c2ccc(C3CCN(C(=O)c4cccc(OCc5ccccc5)c4)CC3)cc2)c1C [A22]
7	–	–	Cc1cccc(-c2ccc(C3CCN(Cc4ccccc4Oc4ccccc4)CC3)cc2)c1C [A33]
2.5	–	–	Cc1cccc(-c2ccc(N3CCN(C(=O)C4CCCC4)CC3)cc2)c1C [J10]
–	50	–	Cc1ccccc1-c1ccc([C@H]2[C@H]3CN(C(=O)NC4CCCC4)CC(=O)N3[C@H]2CO)cc1 [compound 612]

IC50 [µM]	Emax [%]	Imax (%) Proteolysis (inhibition maximum) [%]	Structure (SMILES)
0.002	–	–	Cc1ccccc1S(=O)(=O)N1CCCCN2C(C1)[C@H](c1ccc(-c3cccc(C)c3C)cc1)[C@H]2CN (stereo partly shown) [JP-8N]
7.5	100	–	Cc1ccccc1S(=O)(=O)N1CCCCN2[C@H](CO)[C@@H](c3ccc(-c4cccc(O)c4)cc3)[C@@H]2C1 [B7]
0.8	–	–	Cc1cc(F)ccc1-c1ccc([C@@H]2[C@@H](CO)N3CCCCN(S(=O)(=O)c4ccccc4C)C[C@@H]23)cc1 [JP-39]
> 100	–	–	Cc1ccccc1S(=O)(=O)N1CCCCN2[C@H](CO)[C@@H](c3ccccc3)[C@@H]2C1 [K2]
12	–	–	Cc1cccc(-c2ccc(C3CCN(Cc4ccc5ccccc5n4)CC3)cc2)c1C [A39]
25	–	–	Cc1cccc(-c2ccc(C3CCN(S(=O)(=O)c4ccc5c(c4)Cc4ccccc4-5)CC3)cc2)c1C [A08]
0.05	–	–	Cc1cccc(-c2ccc([C@@H]3[C@@H](CO)N4CCCCN(S(=O)(=O)c5ccc(F)cc5C(F)(F)F)C[C@@H]34)cc2)c1C [JP-S15]
0.05	–	–	COC[C@@H]1[C@@H](c2ccc(-c3cccc(C)c3C)cc2)[C@@H]2CN(S(=O)(=O)c3ccccc3C(F)(F)F)CCCCN12 [JP-17-OMe]
–	100	–	Cc1ccccc1S(=O)(=O)N1CCCCN2C(C1)[C@H](c1ccc(-c3ccc4c(c3)OCO4)cc1)[C@H]2CO (stereo partly shown) [K5]
–	30	–	Cc1cccc(-c2ccc([C@@H]3[C@H](CO)N4CCCCN(S(=O)(=O)c5ccccc5F)C[C@@H]34)cc2)c1 [Compound 807]
0.008	–	–	Cc1c(F)ccc(-c2ccc([C@@H]3[C@@H](CO)N4CCCCN(S(=O)(=O)c5cnc(C)n5C)C[C@@H]34)cc2)c1C [JP-42]
> 200	–	–	Cc1cccc(-c2ccc([C@@H]3[C@@H](CO)N4CCCCN(C(=O)c5ccc6c(c5)OCO6)C[C@@H]34)cc2)c1 [compound 291]
12	–	–	Cc1cccc(-c2ccc(C3CCN(S(=O)(=O)c4ccccc4Oc4ccccc4)CC3)cc2)c1C [A04]
7	50	–	CCC(=O)N1[C@H](CO)[C@H](c2ccc(-c3ccccc3OC)cc2)[C@@H]1CNC(C)=O [D3]
0.25	–	–	Cc1cccc(-c2ccc([C@@H]3[C@@H](CO)N4CCCCN(S(=O)(=O)c5ccccc5C)C[C@@H]34)cc2)c1 [BRD-297]
–	65	–	Cc1ccc(C)c(-c2ccc([C@@H]3[C@@H](CO)N4CCCCN(S(=O)(=O)c5ccccc5C)C[C@@H]34)cc2)c1 [B12]
0.1	–	–	Cc1cc2c(cc1S(=O)(=O)N1CCCCN3[C@H](CO)[C@@H](c4ccc(-c5cccc(C)c5C)cc4)[C@@H]3C1)OCC(=O)N2 [JP-S13]
–	90	–	Cc1ccccc1S(=O)(=O)N1CCCCN2[C@H](CO)[C@@H](c3ccc(-c4cccc(F)c4F)cc3)[C@@H]2C1 [B14]
9	–	–	Cc1cccc(-c2ccc(C3CCN(S(=O)(=O)c4cccc(Oc5ccc(F)cc5)c4)CC3)cc2)c1C [A05]
0.4	–	65	Cc1cccc(-c2ccc([C@@H]3[C@@H](CO)N4CCCCN(S(=O)(=O)c5ccccc5C)C[C@@H]34)cc2)c1 [B2]
–	72	–	Cc1cc(C)cc(-c2ccc([C@H]3C4CN(S(=O)(=O)c5ccccc5C)CCCCN4[C@@H]3CO)cc2)c1 (stereo partly shown) [K10]
–	65	–	Cc1ccccc1-c1ccc([C@@H]2[C@@H](CO)N3CCCCN(S(=O)(=O)c4ccccc4C)C[C@@H]23)cc1 [B11]
0.8	–	–	COc1ccc(C)cc1-c1ccc([C@@H]2[C@@H](CO)N3CCCCN(S(=O)(=O)c4ccccc4C)C[C@@H]23)cc1 [K16]
0.03	–	–	Cc1cccc(-c2ccc([C@@H]3[C@@H](CO)N4CCCCN(S(=O)(=O)N5CCN(C)CC5)C[C@@H]34)cc2)c1C [JP-S22]
0.09	–	–	CCn1ncc(S(=O)(=O)N2C/C=C\CN3C(C2)[C@H](c2ccc(-c4cccc(C)c4C)cc2)[C@H]3CO)c1C (stereo partly shown) [JP-S19]
0.02	–	–	Cc1cc(S(=O)(=O)N2CCCCN3[C@H](CO)[C@@H](c4ccc(-c5cccc(C)c5C)cc4)[C@@H]3C2)n(C)n1 [JP-S25]
